The values below come from ChEMBL document CHEMBL5729461, “CDPK1 inhibitors, compositions, and methods related thereto” (2022).

The structures appear in SMILES notation.

This test has as its target T1, Calmodulin-domain protein kinase 1 (Toxoplasma gondii, UniProt Q9BJF5).
T1 sequence (Q9BJF5 whole entry): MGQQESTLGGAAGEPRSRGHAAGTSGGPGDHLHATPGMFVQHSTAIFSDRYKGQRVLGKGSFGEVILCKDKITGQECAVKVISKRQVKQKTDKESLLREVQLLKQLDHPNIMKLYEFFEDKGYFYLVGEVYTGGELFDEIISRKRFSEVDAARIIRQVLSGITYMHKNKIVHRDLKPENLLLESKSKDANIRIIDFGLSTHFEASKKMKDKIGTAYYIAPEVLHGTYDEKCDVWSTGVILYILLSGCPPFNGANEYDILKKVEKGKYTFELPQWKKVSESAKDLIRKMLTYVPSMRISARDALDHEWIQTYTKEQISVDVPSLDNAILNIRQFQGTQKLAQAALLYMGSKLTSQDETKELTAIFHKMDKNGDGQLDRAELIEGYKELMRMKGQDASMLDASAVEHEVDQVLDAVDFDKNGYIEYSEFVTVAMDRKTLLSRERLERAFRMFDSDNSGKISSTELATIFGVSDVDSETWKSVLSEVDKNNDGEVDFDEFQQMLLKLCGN
Briefly: Inhibition Assay: Certain of the compounds prepared as described above were assayed to determine their IC50 for inhibition of T. gondii CDPK1 (tgCDPK1). At least three independent replicates of the assay were conducted for each compound tested.

With `Nc1ncnc2c1c(Cc1cccc(Cl)c1)nn2[C@H]1C[C@H](O)C1`, the half-maximal inhibitory concentration (IC50) came out at 0.00887 µM.

The compound `Nc1ncnc2c1c(Cc1cccc(C(F)(F)F)c1)nn2[C@H]1C[C@H](O)C1` displayed an IC50 of 0.036 µM.

As to `Nc1ncnc2c1c(Cc1cccc(F)c1)nn2[C@H]1C[C@H](O)C1`, the IC50 was determined as 0.0283 µM.

Turning to `Nc1ncnc2c1c(Cc1cccc(Cl)c1)nn2[C@H]1C[C@@H](F)C1`, the IC50 turned out to be 0.00705 µM.

With `NC(=O)c1ccnc(Oc2nn([C@H]3C[C@H](F)C3)c3ncnc(N)c23)c1`, the IC50 is 0.0697 µM.

Regarding `N#Cc1cccc(Cc2nn([C@H]3C[C@H](F)C3)c3ncnc(N)c23)c1`, the IC50 worked out at 0.0459 µM. This IC50 lies about 1.5-fold lower than the previous one.

`Nc1ncnc2c1c(Cc1cccc(F)c1)cn2[C@H]1C[C@H](O)C1` displayed an IC50 of 0.0283 µM.

`COc1ccnc(Oc2nn([C@H]3C[C@@H](O)C3)c3ncnc(N)c23)c1` displayed an IC50 of 0.0371 µM.

Compound `Nc1ncnc2c1c(Cc1cccc(F)c1)nn2[C@H]1C[C@H](F)C1` gave an IC50 of 0.0142 µM. This IC50 lies about 2.6-fold lower than the previous one.
